ChEMBL document CHEMBL4602617, “Discovery and optimization of heteroaryl piperazines as potent and selective PI3Kδ inhibitors” (Bioorg Med Chem Lett, 2020)

Legend:
[1] = biological target: Cyclin-dependent kinase 1/cyclin B1 (Homo sapiens, UniProt P06493); assay: Inhibition of recombinant full length human His-tagged CDK1/CyclinB expressed in baculovirus expression system using serine/threonine-18 peptide as substrate incubated for 60 mins in presence of ATP by Z'-LYTE assay
[2] = biological target: Vasopressin V1b receptor (Homo sapiens) (UniProt P47901); assay: Displacement of [3H]-(Arg8)-Vasopressin from recombinant full length human V1B receptor expressed in CHO-K1 cells at 10 uM after 120 mins by radiometric scintillation analysis relative to control; type: cell-based
Chain of Vasopressin V1b receptor (Homo sapiens) (P47901 whole entry): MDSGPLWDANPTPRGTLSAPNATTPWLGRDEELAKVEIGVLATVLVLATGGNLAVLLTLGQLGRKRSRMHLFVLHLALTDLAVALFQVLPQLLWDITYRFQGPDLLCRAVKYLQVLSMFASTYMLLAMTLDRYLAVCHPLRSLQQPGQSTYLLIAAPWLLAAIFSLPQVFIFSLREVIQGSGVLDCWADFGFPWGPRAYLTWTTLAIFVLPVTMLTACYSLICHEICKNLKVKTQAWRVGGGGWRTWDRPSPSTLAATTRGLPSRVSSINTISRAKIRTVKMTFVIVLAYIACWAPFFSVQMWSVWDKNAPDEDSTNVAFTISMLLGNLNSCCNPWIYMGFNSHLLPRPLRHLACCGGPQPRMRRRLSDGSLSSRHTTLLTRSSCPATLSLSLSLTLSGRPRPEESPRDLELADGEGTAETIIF

[3] = biological target: Glycine receptor (Rattus norvegicus) (UniProt P22771+P24524+P07727+P20781); assay: Displacement of [3H]strychnine from glycine ion channel in Wistar rat spinal cord membranes at 10 uM incubated for 10 mins by radiometric scintillation analysis relative to control; type: cell membranes; conditions: Membrane
[4] = biological target: Glutamate NMDA receptor (Rattus norvegicus) (UniProt P35439+Q00959+Q00960+Q00961+Q62645+Q8VHN2+Q9R1M7); assay: Displacement of [3H]TCP from glutamate NMDA receptor phencyclidine binding site in Wistar rat cerebral cortex at 10 uM incubated for 45 mins by radiometric scintillation analysis relative to control
[5] = biological target: Endothelin-1 receptor (Homo sapiens) (UniProt P25101); assay: Displacement of [125I]endothelin-1 from recombinant full length human recombinant ETA receptor expressed in CHO-S cells at 10 uM measured after 120 mins by radiometric scintillation analysis relative to control; type: cell-based
Chain of Endothelin-1 receptor (Homo sapiens) (P25101 whole entry): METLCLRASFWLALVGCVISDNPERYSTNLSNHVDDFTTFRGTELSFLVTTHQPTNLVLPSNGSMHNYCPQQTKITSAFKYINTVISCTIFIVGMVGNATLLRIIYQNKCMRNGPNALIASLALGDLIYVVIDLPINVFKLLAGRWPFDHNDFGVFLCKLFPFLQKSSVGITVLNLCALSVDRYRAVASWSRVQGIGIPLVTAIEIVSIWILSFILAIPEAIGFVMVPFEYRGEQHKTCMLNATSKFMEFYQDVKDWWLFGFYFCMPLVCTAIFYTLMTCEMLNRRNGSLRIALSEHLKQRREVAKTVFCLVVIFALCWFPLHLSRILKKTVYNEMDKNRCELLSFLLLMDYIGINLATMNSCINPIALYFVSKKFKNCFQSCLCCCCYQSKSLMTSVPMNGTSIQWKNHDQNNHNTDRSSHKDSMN

[6] = biological target: Gastrin/cholecystokinin type B receptor (Homo sapiens) (UniProt P32239); assay: Displacement of [125I]CCK-8 from recombinant full length human recombinant CCK2 expressed in Chem-1 cells at 10 uM measured after 3 hrs by radiometric scintillation analysis relative to control; type: cell-based
Chain of Gastrin/cholecystokinin type B receptor (Homo sapiens) (P32239 whole entry, canonical isoform): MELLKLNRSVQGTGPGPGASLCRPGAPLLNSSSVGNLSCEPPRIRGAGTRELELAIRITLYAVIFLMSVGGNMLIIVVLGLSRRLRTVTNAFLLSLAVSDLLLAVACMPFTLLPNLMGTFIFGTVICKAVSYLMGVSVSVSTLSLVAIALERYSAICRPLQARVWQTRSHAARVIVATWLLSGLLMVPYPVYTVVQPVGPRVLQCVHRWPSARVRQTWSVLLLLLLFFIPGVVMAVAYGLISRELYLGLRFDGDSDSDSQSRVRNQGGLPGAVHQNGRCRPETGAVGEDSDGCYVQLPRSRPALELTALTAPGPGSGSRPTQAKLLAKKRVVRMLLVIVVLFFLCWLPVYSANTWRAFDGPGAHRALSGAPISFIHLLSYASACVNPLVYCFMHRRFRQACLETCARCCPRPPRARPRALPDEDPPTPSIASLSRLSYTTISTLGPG

[7] = biological target: Casein kinase I isoform delta (Homo sapiens, UniProt P48730); assay: Inhibition of recombinant human full-length GST-tagged CSNK1D expressed in baculovirus expression system using FRET-labeled Ser/Thr 11 peptide as substrate measured after 1 hr in presence of ATP by Z'-lyte assay
Chain of Casein kinase I isoform delta (P48730 whole entry, canonical isoform): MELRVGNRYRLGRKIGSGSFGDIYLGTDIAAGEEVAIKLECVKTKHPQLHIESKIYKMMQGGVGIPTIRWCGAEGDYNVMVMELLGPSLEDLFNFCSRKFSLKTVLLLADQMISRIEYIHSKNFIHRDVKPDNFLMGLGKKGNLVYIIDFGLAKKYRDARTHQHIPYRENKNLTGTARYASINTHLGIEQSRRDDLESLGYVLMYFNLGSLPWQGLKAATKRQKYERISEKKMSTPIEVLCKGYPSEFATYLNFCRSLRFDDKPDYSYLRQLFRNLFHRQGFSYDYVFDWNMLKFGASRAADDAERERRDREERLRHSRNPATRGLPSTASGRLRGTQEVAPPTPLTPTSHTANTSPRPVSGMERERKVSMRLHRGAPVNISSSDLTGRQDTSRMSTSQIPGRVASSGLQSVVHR

[8] = biological target: DNA-dependent protein kinase catalytic subunit (Homo sapiens, UniProt P78527); assay: Inhibition of recombinant human DNA-PK expressed in baculovirus expression system using serine/threonine-26 peptide as substrate incubated for 60 mins in presence of ATP by Z'-LYTE assay
[9] = biological target: Eukaryotic elongation factor 2 kinase (Homo sapiens, UniProt O00418); assay: Inhibition of recombinant human full length GST-tagged EEF2K expressed in Escherichia coli expression system using serine/threonine-24 peptide as substrate incubated for 60 mins in presence of ATP by Z'-LYTE assay
[10] = biological target: Receptor-type tyrosine-protein kinase FLT3 (Homo sapiens, UniProt P36888); assay: Inhibition of recombinant human His-tagged FLT3 cytoplasmic domain (564 to 958 residues) expressed in baculovirus expression system using tyrosine-2 peptide as substrate incubated for 60 mins in presence of ATP by Z'-LYTE assay
[11] = biological target: Tyrosine-protein kinase FRK (Homo sapiens, UniProt P42685); assay: Inhibition of recombinant full length GST-tagged human FRK expressed in baculovirus expression system using tyrosine 1 as substrate after 1 hr in presence of ATP by ZYLTE assay
Chain of Tyrosine-protein kinase FRK (P42685 whole entry, the tested form may be a part): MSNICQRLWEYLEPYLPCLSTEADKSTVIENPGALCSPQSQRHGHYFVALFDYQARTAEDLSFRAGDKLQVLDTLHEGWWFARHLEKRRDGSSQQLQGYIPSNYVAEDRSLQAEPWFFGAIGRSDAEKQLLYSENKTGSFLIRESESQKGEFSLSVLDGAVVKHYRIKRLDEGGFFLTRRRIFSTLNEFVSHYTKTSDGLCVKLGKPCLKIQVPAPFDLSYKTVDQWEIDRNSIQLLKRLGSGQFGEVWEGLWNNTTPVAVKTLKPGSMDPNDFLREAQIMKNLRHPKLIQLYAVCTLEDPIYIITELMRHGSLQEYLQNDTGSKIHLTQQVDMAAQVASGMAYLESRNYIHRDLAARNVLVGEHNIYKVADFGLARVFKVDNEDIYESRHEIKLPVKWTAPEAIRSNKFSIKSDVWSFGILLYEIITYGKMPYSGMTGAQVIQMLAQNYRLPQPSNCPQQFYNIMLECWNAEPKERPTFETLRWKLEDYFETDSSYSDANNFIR

[12] = biological target: Tyrosine-protein kinase Fyn (Homo sapiens, UniProt P06241); assay: Inhibition of recombinant full length C-terminal His-tagged human FYN cytoplasmic domain expressed in baculovirus expression system using fluorophore-labeled tyrosine-2 peptide as substrate after 1 hr in presence of ATP by Z'-Lyte assay
[13] = biological target: Serine/threonine-protein kinase haspin (Homo sapiens, UniProt Q8TF76); assay: Inhibition of recombinant N-terminal GST tagged human GSG2 catalytic domain (471 to 798 residues) expressed in baculovirus expression system using Histone H3 (1-20) peptide as substrate after 1 hr in presence of ATP by ADAPTA assay
[14] = biological target: Interleukin-1 receptor-associated kinase 4 (Homo sapiens, UniProt Q9NWZ3); assay: Inhibition of recombinant full length human His-tagged IRAK4 expressed in baculovirus expression system using serine/threonine-7 peptide as substrate incubated for 60 mins in presence of ATP by Z'-LYTE assay
[15] = biological target: Mitogen-activated protein kinase 8 (Homo sapiens, UniProt P45983); assay: Inhibition of recombinant full length human His-tagged JNK1alpha1 expressed in baculovirus expression system using serine/threonine-4 peptide as substrate incubated for 60 mins in presence of ATP by Z'-LYTE assay
[16] = biological target: Serine/threonine-protein kinase Nek1 (Homo sapiens, UniProt Q96PY6); assay: Inhibition of recombinant human GST-tagged NEK1 catalytic domain (1 to 505 residues) expressed in baculovirus expression system using serine/threonine-7 peptide as substrate incubated for 60 mins in presence of ATP by Z'-LYTE assay
[17] = biological target: Serine/threonine-protein kinase Nek9 (Homo sapiens, UniProt Q8TD19); assay: Inhibition of recombinant human GST-tagged NEK9 catalytic domain (347 to 732 residues) expressed in baculovirus expression system using serine/threonine-7 peptide as substrate incubated for 60 mins in presence of ATP by Z'-LYTE assay
[18] = biological target: NUAK family SNF1-like kinase 1 (Homo sapiens, UniProt O60285); assay: Inhibition of recombinant full length His-tagged human NUAK1 expressed in baculovirus expression system using CHKtide as substrate after 1 hr in presence of ATP by Adapta assay
Chain of NUAK family SNF1-like kinase 1 (O60285 whole entry, the tested form may be a part): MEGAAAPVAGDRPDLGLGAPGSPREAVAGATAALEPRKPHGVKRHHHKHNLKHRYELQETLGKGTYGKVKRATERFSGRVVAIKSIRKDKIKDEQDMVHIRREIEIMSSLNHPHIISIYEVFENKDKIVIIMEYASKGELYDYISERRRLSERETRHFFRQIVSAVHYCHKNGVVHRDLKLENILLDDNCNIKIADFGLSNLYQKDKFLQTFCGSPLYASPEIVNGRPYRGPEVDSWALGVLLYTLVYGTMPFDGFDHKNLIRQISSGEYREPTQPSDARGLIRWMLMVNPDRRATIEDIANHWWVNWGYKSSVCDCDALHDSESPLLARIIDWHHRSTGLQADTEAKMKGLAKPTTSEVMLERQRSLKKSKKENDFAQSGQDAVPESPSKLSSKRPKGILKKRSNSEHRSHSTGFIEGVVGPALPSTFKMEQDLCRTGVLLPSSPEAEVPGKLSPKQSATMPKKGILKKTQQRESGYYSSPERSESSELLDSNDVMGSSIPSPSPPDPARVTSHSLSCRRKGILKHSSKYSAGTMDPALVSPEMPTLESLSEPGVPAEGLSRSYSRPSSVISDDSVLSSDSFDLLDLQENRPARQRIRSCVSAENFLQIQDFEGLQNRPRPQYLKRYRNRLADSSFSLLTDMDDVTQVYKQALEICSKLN

[19] = biological target: Serine/threonine-protein kinase PAK 5 (Homo sapiens, UniProt Q9P286); assay: Inhibition of recombinant human His-tagged PAK7 catalytic domain (425 to 719 residues) expressed in baculovirus expression system using serine/threonine-20 peptide as substrate incubated for 60 mins in presence of ATP by Z'-LYTE assay
Chain of Serine/threonine-protein kinase PAK 5 (Q9P286 whole entry, the tested form may be a part): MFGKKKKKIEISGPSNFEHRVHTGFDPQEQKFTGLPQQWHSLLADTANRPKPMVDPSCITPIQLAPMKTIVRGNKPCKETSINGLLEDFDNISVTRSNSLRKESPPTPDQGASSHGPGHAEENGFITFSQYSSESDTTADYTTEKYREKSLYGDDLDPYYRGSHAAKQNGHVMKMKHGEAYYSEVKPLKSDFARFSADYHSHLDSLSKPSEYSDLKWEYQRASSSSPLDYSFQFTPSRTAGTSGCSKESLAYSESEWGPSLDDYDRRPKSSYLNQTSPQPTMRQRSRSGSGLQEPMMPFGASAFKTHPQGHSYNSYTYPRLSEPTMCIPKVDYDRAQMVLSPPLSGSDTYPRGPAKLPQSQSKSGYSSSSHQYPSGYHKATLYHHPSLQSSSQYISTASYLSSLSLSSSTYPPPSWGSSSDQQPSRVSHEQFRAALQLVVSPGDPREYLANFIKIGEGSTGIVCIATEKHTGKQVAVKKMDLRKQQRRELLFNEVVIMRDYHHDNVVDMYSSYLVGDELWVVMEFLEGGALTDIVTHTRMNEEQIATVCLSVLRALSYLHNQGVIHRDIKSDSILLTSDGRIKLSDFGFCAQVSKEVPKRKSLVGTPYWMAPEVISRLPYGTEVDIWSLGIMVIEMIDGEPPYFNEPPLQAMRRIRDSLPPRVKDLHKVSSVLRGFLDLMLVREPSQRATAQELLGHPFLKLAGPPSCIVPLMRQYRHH

[20] = biological target: Protein kinase C alpha type (Homo sapiens, UniProt P17252); assay: Inhibition of recombinant human GST-tagged PKCalpha expressed in insect expression system using serine/threonine-7 peptide as substrate incubated for 60 mins in presence of ATP by Z'-LYTE assay
[21] = biological target: Protein kinase C beta type (Homo sapiens, UniProt P05771); assay: Inhibition of recombinant full length human GST-tagged PKCbeta2 expressed in insect expression system using serine/threonine-7 peptide as substrate incubated for 60 mins in presence of ATP by Z'-LYTE assay
[22] = biological target: Protein kinase C gamma type (Homo sapiens, UniProt P05129); assay: Inhibition of recombinant full length human GST-tagged PRKCG expressed in insect expression system using serine/threonine-7 peptide as substrate incubated for 60 mins in presence of ATP by Z'-LYTE assay
[23] = biological target: RAF proto-oncogene serine/threonine-protein kinase (Homo sapiens, UniProt P04049, Y340D/Y341D); assay: Inhibition of recombinant human GST-tagged RAF1 Y340D Y341D mutant catalytic domain expressed in baculovirus expression system using serine/threonine-3 peptide as substrate incubated for 60 mins in presence of ATP by Z'-LYTE assay
Chain of RAF proto-oncogene serine/threonine-protein kinase (P04049 whole entry Y340D/Y341D, the tested form may be a part): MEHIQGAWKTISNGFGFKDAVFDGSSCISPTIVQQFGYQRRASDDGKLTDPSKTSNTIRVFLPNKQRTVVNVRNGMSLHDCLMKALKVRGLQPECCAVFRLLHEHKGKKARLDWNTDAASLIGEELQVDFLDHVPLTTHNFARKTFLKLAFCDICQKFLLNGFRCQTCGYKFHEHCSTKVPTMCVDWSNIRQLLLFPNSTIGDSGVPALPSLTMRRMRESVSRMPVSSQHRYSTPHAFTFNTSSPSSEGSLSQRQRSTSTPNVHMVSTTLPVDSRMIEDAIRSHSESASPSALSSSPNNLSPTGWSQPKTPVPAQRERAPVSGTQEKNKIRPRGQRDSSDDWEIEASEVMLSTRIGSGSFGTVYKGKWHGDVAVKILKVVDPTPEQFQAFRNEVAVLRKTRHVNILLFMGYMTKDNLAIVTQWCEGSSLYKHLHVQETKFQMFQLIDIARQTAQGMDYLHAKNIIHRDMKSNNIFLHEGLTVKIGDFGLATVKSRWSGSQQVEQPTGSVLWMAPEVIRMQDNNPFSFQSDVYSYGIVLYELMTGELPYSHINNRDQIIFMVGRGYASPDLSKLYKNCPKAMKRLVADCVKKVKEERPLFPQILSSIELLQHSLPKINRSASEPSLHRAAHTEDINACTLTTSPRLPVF

[24] = biological target: Ribosomal protein S6 kinase alpha-6 (Homo sapiens, UniProt Q9UK32); assay: Inhibition of recombinant full length human N-terminal GST-tagged RPS6KA6 expressed in baculovirus expression system using ser/Thr20 peptide as substrate incubated for 60 mins in presence of ATP by Z'-LYTE assay
Chain of Ribosomal protein S6 kinase alpha-6 (Q9UK32 whole entry): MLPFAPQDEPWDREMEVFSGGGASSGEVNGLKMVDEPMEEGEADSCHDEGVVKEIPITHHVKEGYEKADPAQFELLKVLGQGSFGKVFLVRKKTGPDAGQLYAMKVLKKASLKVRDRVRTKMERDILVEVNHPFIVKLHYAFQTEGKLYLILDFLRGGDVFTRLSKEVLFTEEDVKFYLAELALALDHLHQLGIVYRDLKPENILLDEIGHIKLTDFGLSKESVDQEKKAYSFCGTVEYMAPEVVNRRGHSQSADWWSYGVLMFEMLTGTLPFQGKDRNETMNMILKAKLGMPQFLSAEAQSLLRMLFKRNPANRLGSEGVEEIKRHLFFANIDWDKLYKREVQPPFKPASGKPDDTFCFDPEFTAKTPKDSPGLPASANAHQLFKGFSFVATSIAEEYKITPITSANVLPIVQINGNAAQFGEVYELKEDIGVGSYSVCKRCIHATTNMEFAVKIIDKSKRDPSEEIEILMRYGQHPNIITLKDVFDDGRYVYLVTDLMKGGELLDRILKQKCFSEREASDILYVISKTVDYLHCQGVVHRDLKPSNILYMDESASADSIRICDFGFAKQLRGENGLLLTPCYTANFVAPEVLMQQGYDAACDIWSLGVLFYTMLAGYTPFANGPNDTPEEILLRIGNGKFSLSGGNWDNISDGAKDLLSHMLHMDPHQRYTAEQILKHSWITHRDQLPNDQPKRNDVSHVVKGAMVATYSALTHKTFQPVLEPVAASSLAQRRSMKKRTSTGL

Work on `C[C@@H]1C[C@H]1C(=O)N1CCN(c2cnc(C#N)c(-c3cnn(C)c3)n2)C[C@H]1C` yielded an IC50 [1] greater than 100 µM, an inhibition [2] of 6% and an inhibition [3] of 3%. The inhibition [4] was -4%, the inhibition [5] was -9% and the inhibition [6] was -4%. It also gave an IC50 [7] greater than 100 µM, an IC50 [8] greater than 100 µM and an IC50 [9] greater than 100 µM. It also gave an IC50 [10] greater than 100 µM, an IC50 [11] greater than 100 µM and an IC50 [12] greater than 100 µM. The IC50 [13] was greater than 100 µM, the IC50 [14] was greater than 100 µM and the IC50 [15] was greater than 100 µM. The IC50 [16] was greater than 100 µM, the IC50 [17] was greater than 100 µM and the IC50 [18] was greater than 100 µM. For the same molecule, the IC50 [19] was greater than 100 µM, the IC50 [20] was greater than 100 µM and the IC50 [21] was greater than 100 µM. It also gave an IC50 [22] greater than 100 µM, an IC50 [23] greater than 100 µM and an IC50 [24] greater than 100 µM.
